Assay results reported in the NIST ThermoML archive (doi:10.1016/j.jct.2016.09.030).

Experiment: refractive index (Na D-line) (dimensionless); xn = mol fraction of the nth substance listed
Details: 100 kPa, Liquid, Standard Abbe refractometry

CCCCCCCC(=O)OCC [ethyl octanoate] + CC(C)CCO
refractive index
Details	x1 = 0.1	x1 = 0.2001	x1 = 0.3	x1 = 0.4	x1 = 0.5001	x1 = 0.5999	x1 = 0.7003	x1 = 0.7998	x1 = 0.9001	x1 = 1
288.15 K	1.4104	1.412	1.4134	1.4146	1.4156	1.4166	1.4175	1.4183	1.4191	1.4199
293.15 K	1.4083	1.4099	1.4112	1.4124	1.4135	1.4144	1.4153	1.4161	1.4169	1.4177
298.15 K	1.4063	1.4078	1.4091	1.4102	1.4113	1.4122	1.4131	1.4139	1.4147	1.4155
303.15 K	1.4042	1.4056	1.4069	1.4081	1.4091	1.41	1.4109	1.4116	1.4125	1.4132
308.15 K	1.4021	1.4035	1.4047	1.4059	1.4069	1.4078	1.4087	1.4094	1.4102	1.411
313.15 K	1.3999	1.4013	1.4026	1.4037	1.4047	1.4056	1.4064	1.4072	1.408	1.4088
318.15 K	1.3978	1.3992	1.4004	1.4015	1.4024	1.4034	1.4042	1.405	1.4058	1.4066
323.15 K	1.3957	1.397	1.3982	1.3993	1.4003	1.4012	1.402	1.4027	1.4036	1.4044

CCCCCCCC(=O)OCC [ethyl octanoate] + CC(C)CO
refractive index
Details	x1 = 0.1001	x1 = 0.1999	x1 = 0.3	x1 = 0.4	x1 = 0.5	x1 = 0.5999	x1 = 0.6999	x1 = 0.7999	x1 = 0.9	x1 = 1
288.15 K	1.4018	1.4052	1.408	1.4102	1.4123	1.4142	1.4158	1.4173	1.4186	1.4199
293.15 K	1.3997	1.403	1.4058	1.408	1.4101	1.412	1.4136	1.4151	1.4164	1.4177
298.15 K	1.3976	1.4009	1.4036	1.4058	1.4079	1.4097	1.4114	1.4128	1.4142	1.4155
303.15 K	1.3955	1.3987	1.4014	1.4036	1.4056	1.4075	1.4091	1.4106	1.4119	1.4132
308.15 K	1.3933	1.3965	1.3992	1.4014	1.4034	1.4052	1.4069	1.4084	1.4097	1.411
313.15 K	1.3911	1.3942	1.3969	1.3991	1.4012	1.403	1.4046	1.4061	1.4075	1.4088
318.15 K	1.3889	1.392	1.3947	1.3968	1.3989	1.4007	1.4024	1.4039	1.4052	1.4066
323.15 K	1.3867	1.3898	1.3925	1.3946	1.3967	1.3985	1.4001	1.4017	1.403	1.4044
